Reference: patent publication US9434711B2 (Janssen Pharmaceutica, NV, priority 2007, dated 2016)

How the values were obtained:
[1] = molecular target: canine TRPM8 (Canis lupus familiaris, UniProt Q1A7N1); experiment: In Vitro Canine TRPM8 Functional Assay (Ca2+ fluorescence, icilin activation); format: cell-based; conditions: for IC50: HEK293 cells stably expressing canine TRPM8, icilin activation, eight-point dose-response, read-out: IC50; for inhibition at 0.5 µM: compound at 0.5 μM, read-out: % Inh @ 0.5; for inhibition at 0.5 µM / inhibition at 0.2 µM: canine TRPM8, icilin activation; for inhibition at 0.2 µM: compound at 0.2 μM, read-out: % Inh @ 0.2
Method in brief: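 Canine TRPM8 stably expressed in HEK293; compound added 5 min before icilin challenge (~80% max response), with fluorescent Ca2+ signal tracked throughout.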

[2] = test system: Male Sprague Dawley rats; experiment: Reversal of Icilin-Induced Behaviors in Rats; format: in vivo; conditions: Rattus norvegicus, po, 1 h, 1 h post-icilin; for inhibition in vivo at 30 mg/kg: 30 mg/kg p.o.
Description: Male Sprague Dawley rats (225-450 g, Charles River Labs, n=4-6/treatment) were used to evaluate the ability of selected compounds of the formula (I) to reverse icilin-induced “wet-dog” shakes. Icilin was administered in PEG-400 or 10% solutol/H2O, at 1.0 or 3.0 mg/kg, i.p. and spontaneous “wet-dog” shakes (WDS) were counted 10-20 minutes post-icilin. […] Results are presented as a percent inhibition of shakes, which was calculated as [1-(test compound WDS count/vehicle WDS count)]×100.

[3] = test system: Male Sprague Dawley rats; experiment: Chronic Constriction Injury (CCI)-Induced Model of Neuropathic Pain, Acetone-Induced Hypersensitivity; format: in vivo, rat; conditions: Rattus norvegicus; for inhibition in vivo at 3 mg/kg: 3 mg/kg p.o.; for inhibition in vivo at 10 mg/kg: 10 mg/kg p.o.
Excerpt: Male Sprague Dawley rats (225-450 g; n=5-8/treatment) were used to evaluate the ability of selected compounds of the formula (I) to reverse CCI-induced cold hypersensitivity. Four loose ligatures of 4-0 chromic gut were surgically placed around the left sciatic nerve under inhalation anesthesia as described by Bennett et al (Bennett G J, Xie Y K. Pain 1988, 33(1): 87-107). Fourteen to 35 days following CCI surgery, subjects were placed in elevated observation chambers containing wire mesh floors and five applications of acetone (0.05 mL/application separated by approximately 5 minutes) were spritzed onto the plantar surface of the paw using a multidose syringe. An abrupt withdrawal or lifting of the paw was considered a positive response. The number of positive responses was recorded for each rat over the five trials. Following baseline withdrawal determinations, compounds of formula (I) are administered in an appropriate vehicle, such as hydroxypropyl-β-cyclodextrin (HP β CD), methylcellulose, Methocel, 10% Solutol, or H2O, or the like, by the appropriate route, i.p. or p.o. […] Results are presented as a percent inhibition of […], which was calculated for each subject as [1−(test compound withdrawals/pre-test withdrawals)]×100 and then averaged by treatment.

[4] = test system: Male Sprague Dawley rats; experiment: Inhibition of Icilin-Induced "Wet-Dog" Shakes in Rats; format: in vivo, rat; conditions: Rattus norvegicus, po, 2 h, Water, 120 min pre-icilin, Na salt form
Description: Male Sprague Dawley rats (220-450 g, Charles River Labs, n=6-9/treatment) were used to evaluate the ability of selected compounds of the formula (I) to block icilin-induced “wet-dog” shakes (WDS). Compounds of the formula (I) were administered in an appropriate vehicle, such as hydroxypropyl-β-cyclodextrin (HPβCD), methocellulose, 10% Solutol, or H2O, or the like, by the appropriate route, i.p. or p.o., 30-120 minutes before icilin. Icilin was administered in PEG-400 or 10% solutol/H2O, at 1.0 or 3.0 mg/kg, i.p. and spontaneous “wet-dog” shakes were counted 10-20 minutes post-icilin. Results are presented as a percent inhibition of shakes, which was calculated as [1-(test compound WDS count/vehicle WDS count)]×100.

[5] = test system: Sprague-Dawley rats; experiment: CFA-Induced Paw Radiant Heat Hypersensitivity; format: in vivo, rat; conditions: dose 10 p.o., HPbCD, treatment time 100 min, Na salt form
Description: Intraplantar injection of complete Freund's adjuvant (CFA) in rodents results in a long-lasting inflammatory reaction, characterized by a pronounced hypersensitivity to both thermal and mechanical stimuli. This hypersensitivity peaks between 24-72 hours following injection and can last for several weeks. To assess whether test compounds of the formula (I) reverse established hypersensitivity, a 100 μL intraplantar injection of CFA (suspended in a 1:1 emulsion of saline and heat-killed Mycobacterium tuberculosis in mineral oil) can be injected into a single hind paw of Sprague-Dawley rats (typically males ranging from 150-350 g). This paradigm also may be conducted with a multiple dosing or a prophylactic dosing regime designed to alter the course of hyperalgesia development. This test predicts the analgesic, anti-allodynic and antihyperalgesic effect of numerous effective clinical agents, including acetaminophen, NSAIDS such as aspirin and ibuprofen, and opioids, such as morphine.
Each rat is placed in a test chamber on a warm glass surface and allowed to acclimate for approximately 10 minutes. A radiant thermal stimulus (beam of light) is then focused through the glass onto the plantar surface of each hind paw in turn. The thermal stimulus is automatically shut off by a photoelectric relay when the paw is moved or when the cut-off time is reached (20 seconds for radiant heat at […]). An initial (baseline) response latency to the thermal stimulus is recorded for each animal prior to the injection of CFA. Twenty-four hours following intraplantar CFA injection, the response latency of the animal to the thermal stimulus is then re-evaluated and compared to the animal's baseline response time. […] Immediately following the post-CFA latency assessment, test compound or vehicle (usually Solutol, hydroxypropyl methylcellulose, hydroxypropyl beta-cyclodextrin or PEG-400) is administered i.p. or p.o. to rats. Post-compound treatment withdrawal latencies are assessed at fixed time intervals, typically 30, 60 and 120 minutes. The percent reversal (% R) of hypersensitivity is calculated according to the following formula: % Reversal=(Treatment Response-CFA Response)/(Baseline Response-CFA Response)×100.

[6] = po, 1 h, 30 mg/kg p.o., 10% Solutol, pretreatment 1 hr, CO2H form, read-out: Percent Inhibition
[7] = po, 1 h, 10% Solutol, pretreatment 1 hr, CO2H form, read-out: Percent Inhibition
[8] = po, 2 h, Water, pretreatment 2 hr, Na salt form, read-out: Percent Inhibition

Chain of canine TRPM8 (Q1A7N1 1-1104): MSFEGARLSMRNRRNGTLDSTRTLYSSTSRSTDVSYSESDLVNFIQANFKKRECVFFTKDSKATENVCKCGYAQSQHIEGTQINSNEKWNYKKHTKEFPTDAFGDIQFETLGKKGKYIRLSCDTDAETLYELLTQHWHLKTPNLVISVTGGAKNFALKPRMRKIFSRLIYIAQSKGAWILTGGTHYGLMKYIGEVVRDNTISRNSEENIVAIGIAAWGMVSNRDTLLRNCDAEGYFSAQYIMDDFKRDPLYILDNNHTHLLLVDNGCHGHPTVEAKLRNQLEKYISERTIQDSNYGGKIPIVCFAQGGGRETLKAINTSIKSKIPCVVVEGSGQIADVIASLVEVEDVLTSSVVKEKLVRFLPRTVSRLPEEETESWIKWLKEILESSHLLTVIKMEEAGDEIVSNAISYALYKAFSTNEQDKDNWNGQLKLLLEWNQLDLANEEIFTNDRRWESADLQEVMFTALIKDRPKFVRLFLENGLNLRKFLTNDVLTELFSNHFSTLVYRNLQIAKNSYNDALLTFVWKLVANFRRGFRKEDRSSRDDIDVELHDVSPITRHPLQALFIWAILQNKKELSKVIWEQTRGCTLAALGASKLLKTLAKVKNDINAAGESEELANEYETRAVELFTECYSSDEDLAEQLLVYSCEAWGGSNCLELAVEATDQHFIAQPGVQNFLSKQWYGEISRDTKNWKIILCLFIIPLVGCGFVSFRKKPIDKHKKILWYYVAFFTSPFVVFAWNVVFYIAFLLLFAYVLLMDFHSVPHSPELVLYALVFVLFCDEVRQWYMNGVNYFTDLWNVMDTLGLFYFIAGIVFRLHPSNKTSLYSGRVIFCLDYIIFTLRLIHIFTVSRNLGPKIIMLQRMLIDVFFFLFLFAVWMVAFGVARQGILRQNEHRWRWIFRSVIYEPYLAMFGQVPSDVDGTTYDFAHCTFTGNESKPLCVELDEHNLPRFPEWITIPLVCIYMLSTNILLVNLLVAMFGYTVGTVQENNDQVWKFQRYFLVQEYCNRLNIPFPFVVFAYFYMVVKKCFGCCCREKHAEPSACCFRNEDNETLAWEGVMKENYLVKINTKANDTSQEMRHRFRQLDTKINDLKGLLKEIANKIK

| IC50 [1] | inhibition at 0.5 µM [1] | Compound | inhibition in vivo at 30 mg/kg [2] | also measured |
| --- | --- | --- | --- | --- |
| 16.3 nM | 99% | Cc1c(N(Cc2ccc(F)c(F)c2)S(=O)(=O)c2cn(C)cn2)sc2ccccc12 [Compound 2, N-(3,4-Difluoro-benzyl)-N-(3-methyl-benzo[b]thiophen-2-yl)-1-methyl-1H-imidazole-4-sulfonamide] | 18% |  |
| 7.3 nM | 97% | O=S(=O)(c1ccccc1)N(Cc1ccc(F)c(C(F)(F)F)c1)c1sc2ccccc2c1Cl [Compound 7, N-(3-Chloro-benzo[b]thiophen-2-yl)-N-(4-fluoro-3-trifluoromethyl-benzyl)-benzenesulfonamide] | 65% | inhibition in vivo at 30 mg/kg ([3]; ip, 2 h, 30 mg/kg i.p., 10% Solutol, pretreatment 2 hr, CO2H form, read-out: Percent Inhibition): 66%; inhibition in vivo at 30 mg/kg [3, 6]: 47% |
| 3 nM | 97% | Cc1c(N(Cc2ccc(OC(F)(F)F)cc2)S(=O)(=O)c2cccnc2)sc2ccccc12 [Compound 13, N-(3-Methyl-benzo[b]thiophen-2-yl)-N-(4-trifluoromethoxy-benzyl)-pyridine-3-sulfonamide] | 28% |  |
| 18.9 nM | 99% | Cc1c(N(Cc2cccc3cccnc23)S(=O)(=O)c2cccnc2)sc2ccccc12 [Compound 14, N-(3-Methyl-benzo[b]thiophen-2-yl)-N-(quinolin-8-ylmethyl)-pyridine-3-sulfonamide] | -16% |  |
| 5 nM | 99% | Cc1c(N(Cc2ccc(F)c(F)c2)S(=O)(=O)c2ccccc2)sc2ccccc12 [Compound 125, N-(3,4-Difluoro-benzyl)-N-(3-methyl-benzo[b]thiophen-2-yl)-benzenesulfonamide] | 39% |  |
| 2.1 nM | 98% | O=S(=O)(c1ccccc1)N(Cc1ccc(F)c(F)c1)c1sc2ccccc2c1Br [Compound 148, N-(3-Bromo-benzo[b]thiophen-2-yl)-N-(3,4-difluoro-benzyl)-benzenesulfonamide] | 33% |  |
| 7.1 nM | 101% | O=S(=O)(c1cccnc1)N(Cc1ccc(F)c(F)c1)c1sc2ccccc2c1Br [Compound 149, N-(3-Bromo-benzo[b]thiophen-2-yl)-N-(3,4-difluoro-benzyl)-pyridin-3-yl-sulfonamide] | -3% | inhibition at 0.2 µM [1]: 102% |
| 14.2 nM | 96% | O=S(=O)(c1ccccc1)N(Cc1ccccn1)c1sc2ccccc2c1Br [Compound 168, N-(3-Bromo-benzo[b]thiophen-2-yl)-N-(pyridin-2-ylmethyl)-benzenesulfonamide] | -29% |  |
| 2.5 nM | 99% | O=S(=O)(c1ccccc1)N(Cc1ccc(OC(F)(F)F)cc1)c1sc2ccccc2c1Br [Compound 174, N-(3-Bromo-benzo[b]thiophen-2-yl)-N-(4-trifluoromethoxy-benzyl)-benzenesulfonamide] | 45% |  |
| 5.7 nM | 96% | O=S(=O)(c1ccccc1)N(Cc1ccc(F)c(C(F)(F)F)c1)c1sc2ccccc2c1Br [Compound 177, N-(3-Bromo-benzo[b]thiophen-2-yl)-N-(4-fluoro-3-trifluoromethyl-benzyl)-benzenesulfonamide] | 66% | inhibition in vivo at 3 mg/kg ([2]; 3 mg/kg p.o.): 15%; inhibition in vivo at 10 mg/kg ([2]; 10 mg/kg p.o.): 53%; inhibition in vivo at 16.6 mg/kg ([2]; 16.6 mg/kg p.o.): 54%; inhibition in vivo at 100 mg/kg ([2]; 100 mg/kg p.o.): 52%; inhibition in vivo at 30 mg/kg ([3]; ip, 3 h, 30 mg/kg i.p., 10% Solutol, pretreatment 3 hr, CO2H form, read-out: Percent Inhibition): 60%; inhibition in vivo at 3 mg/kg [3, 7]: 23%; inhibition in vivo at 10 mg/kg [3, 7]: 49%; inhibition in vivo at 30 mg/kg [3, 6]: 46%; inhibition in vivo at 100 mg/kg ([3]; po, 1 h, 100 mg/kg p.o., 10% Solutol, pretreatment 1 hr, CO2H form, read-out: Percent Inhibition): 70% |
| 12.2 nM | 101% | O=S(=O)(c1cccnc1)N(Cc1ccc(F)c(C(F)(F)F)c1)c1sc2ccccc2c1Br [Compound 188, N-(3-Bromo-benzo[b]thiophen-2-yl)-N-(4-fluoro-3-trifluoromethyl-benzyl)-pyridin-3-yl-sulfonamide] | 7% | inhibition at 0.2 µM [1]: 99% |
| 0.8 nM |  | CC(C)(O)c1c(N(Cc2ccc(F)c(C(F)(F)F)c2)S(=O)(=O)c2ccc(C(=O)O)cc2)sc2ccccc12 [Compound 361, N-(4-Fluoro-3-trifluoromethylbenzyl)-N-(3-(1-hydroxy-1-methyl-ethyl)-benzo[b]thiophen-2-yl)-4-carboxy-benzenesulfonamide] |  | inhibition at 0.2 µM [1]: 93%; ED50 [4]: 4.5 mg/kg; Percent Reversal [5]: 28%; inhibition in vivo at 3 mg/kg [3, 8]: 9%; inhibition in vivo at 10 mg/kg [3, 8]: 17%; inhibition in vivo at 30 mg/kg ([3]; po, 2 h, 30 mg/kg p.o., Water, pretreatment 2 hr, Na salt form, read-out: Percent Inhibition): 91%; inhibition in vivo at 30 mg/kg ([3]; po, 4 h, 30 mg/kg p.o., Water, pretreatment 4 hr, Na salt form, read-out: Percent Inhibition): 74%; ED50 ([3]; po, Water, pretreatment 2 hr, Na salt form): 13 mg/kg |
